Assay results: ChEMBL document CHEMBL3751764, “Synthesis and in vitro antiproliferative activity of novel pyrazolo[3,4-d]pyrimidine derivatives” (Medchemcomm, 2015)

Legend:
[1] = test system: K562; experiment: Cytotoxicity against human K562 cells assessed as cell growth at 10 uM after 72 hrs by SRB assay relative to control; type: functional; details: K562, 72 h, read-out: Activity
[2] = Cytotoxicity against human SKOV3 cells assessed as cell growth at 10 uM after 72 hrs by SRB assay relative to control; type: functional; details: SK-OV-3, 72 h, read-out: Activity
[3] = Cytotoxicity against human OVCAR8 cells assessed as cell growth at 10 uM after 72 hrs by SRB assay relative to control; type: functional; details: OVCAR-8, 72 h, read-out: Activity
[4] = test system: SN12C; experiment: Cytotoxicity against human SN12C cells assessed as cell growth at 10 uM after 72 hrs by SRB assay relative to control; type: functional; details: read-out: Activity
[5] = test system: Malme-3M; experiment: Cytotoxicity against human MALME-3M cells assessed as cell growth at 10 uM after 72 hrs by SRB assay relative to control; type: functional; details: read-out: Activity
[6] = Cytotoxicity against human UACC257 cells assessed as cell growth at 10 uM after 72 hrs by SRB assay relative to control; type: functional; details: UACC-257, 72 h, read-out: Activity
[7] = Cytotoxicity against human COLO205 cells assessed as cell growth at 10 uM after 72 hrs by SRB assay relative to control; type: functional; details: COLO 205, 72 h, read-out: Activity
[8] = test system: 786-0; experiment: Cytotoxicity against human 786-0 cells assessed as cell growth at 10 uM after 72 hrs by SRB assay relative to control; type: functional; details: 786-0, 72 h, read-out: Activity
[9] = Cytotoxicity against human UO31 cells assessed as cell growth at 10 uM after 72 hrs by SRB assay relative to control; type: functional; details: UO-31, 72 h, read-out: Activity
[10] = test system: NCI-H23; experiment: Cytotoxicity against human NCI-H23 cells assessed as cell growth at 10 uM after 72 hrs by SRB assay relative to control; type: functional; details: NCI-H23, 72 h, read-out: Activity
[11] = Cytotoxicity against human DU145 cells assessed as cell growth at 10 uM after 72 hrs by SRB assay relative to control; type: functional; details: DU-145, 72 h, read-out: Activity
[12] = target: Vascular endothelial growth factor receptor 2 (Homo sapiens, UniProt P35968); experiment: Inhibition of human VEGFR2 at 10 uM after 20 to 40 mins by liquid scintillation counting analysis in presence of […]; parameters: scale not given: the % may be the effect or the level left
Sequence of Vascular endothelial growth factor receptor 2 (P35968 whole entry): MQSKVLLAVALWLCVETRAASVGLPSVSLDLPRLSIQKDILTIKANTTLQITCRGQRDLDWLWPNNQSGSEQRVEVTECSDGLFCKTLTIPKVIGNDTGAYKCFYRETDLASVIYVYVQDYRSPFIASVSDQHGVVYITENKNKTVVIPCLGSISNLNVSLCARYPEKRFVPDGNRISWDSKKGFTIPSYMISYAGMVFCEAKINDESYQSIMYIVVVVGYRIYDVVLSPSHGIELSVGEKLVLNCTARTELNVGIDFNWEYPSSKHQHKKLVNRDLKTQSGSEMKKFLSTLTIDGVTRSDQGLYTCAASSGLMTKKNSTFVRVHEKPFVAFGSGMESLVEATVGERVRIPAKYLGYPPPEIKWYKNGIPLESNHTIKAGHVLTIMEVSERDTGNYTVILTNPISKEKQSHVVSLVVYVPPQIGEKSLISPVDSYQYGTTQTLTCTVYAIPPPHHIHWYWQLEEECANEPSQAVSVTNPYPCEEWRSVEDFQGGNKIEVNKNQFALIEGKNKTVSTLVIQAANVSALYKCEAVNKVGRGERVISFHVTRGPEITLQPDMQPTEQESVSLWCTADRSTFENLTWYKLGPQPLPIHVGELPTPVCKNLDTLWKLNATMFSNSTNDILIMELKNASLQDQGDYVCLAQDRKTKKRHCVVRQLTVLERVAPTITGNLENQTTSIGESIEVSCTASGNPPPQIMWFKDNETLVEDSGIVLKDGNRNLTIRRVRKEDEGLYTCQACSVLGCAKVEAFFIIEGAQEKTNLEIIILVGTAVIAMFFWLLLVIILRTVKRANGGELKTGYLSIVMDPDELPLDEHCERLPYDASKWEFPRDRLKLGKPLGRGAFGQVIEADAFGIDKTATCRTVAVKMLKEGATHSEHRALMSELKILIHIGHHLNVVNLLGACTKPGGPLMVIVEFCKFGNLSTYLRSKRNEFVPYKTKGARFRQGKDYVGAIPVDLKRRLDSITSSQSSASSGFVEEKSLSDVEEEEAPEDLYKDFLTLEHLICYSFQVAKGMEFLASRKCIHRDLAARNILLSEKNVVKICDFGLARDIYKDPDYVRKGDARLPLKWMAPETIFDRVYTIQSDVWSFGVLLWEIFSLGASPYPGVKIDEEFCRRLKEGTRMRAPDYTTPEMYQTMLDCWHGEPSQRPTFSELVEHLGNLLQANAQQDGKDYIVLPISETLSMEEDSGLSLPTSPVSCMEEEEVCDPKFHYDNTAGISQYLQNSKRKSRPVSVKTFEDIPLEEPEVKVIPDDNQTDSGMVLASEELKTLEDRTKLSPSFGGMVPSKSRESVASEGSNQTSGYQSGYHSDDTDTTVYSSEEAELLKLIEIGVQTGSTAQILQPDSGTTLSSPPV

[13] = test system: NCI-H460; experiment: Cytotoxicity against human NCI-H460 cells assessed as cell growth at 10 uM after 72 hrs by SRB assay relative to control; type: functional; details: NCI-H460, 72 h, read-out: Activity
[14] = test system: MDA-MB-468; experiment: Cytotoxicity against human MDA-MB-468 cells assessed as cell growth at 10 uM after 72 hrs by SRB assay relative to control; type: functional; details: MDA-MB-468, 72 h, read-out: Activity
[15] = Cytotoxicity against human MOLT4 cells assessed as cell growth at 10 uM after 72 hrs by SRB assay relative to control; type: functional; details: MOLT-4, 72 h, read-out: Activity
[16] = test system: T47D; experiment: Cytotoxicity against human T47D cells assessed as cell growth at 10 uM after 72 hrs by SRB assay relative to control; type: functional; details: read-out: Activity
[17] = test system: HT-29; experiment: Cytotoxicity against human HT-29 cells assessed as cell growth at 10 uM after 72 hrs by SRB assay relative to control; type: functional; details: HT-29, 72 h, read-out: Activity
[18] = test system: CCRF-CEM; experiment: Cytotoxicity against human CCRF-CEM cells assessed as cell growth at 10 uM after 72 hrs by SRB assay relative to control; type: functional; details: read-out: Activity
[19] = test system: MCF7; experiment: Cytotoxicity against human MCF7 cells assessed as cell growth at 10 uM after 72 hrs by SRB assay relative to control; type: functional; details: MCF7, 72 h, read-out: Activity
[20] = test system: A498; experiment: Cytotoxicity against human A498 cells assessed as cell growth at 10 uM after 72 hrs by SRB assay relative to control; type: functional; details: A498, 72 h, read-out: Activity
[21] = Cytotoxicity against human NCI-ADR-RES cells assessed as cell growth at 10 uM after 72 hrs by SRB assay relative to control; type: functional; details: read-out: Activity
[22] = test system: SR; experiment: Cytotoxicity against human SR cells assessed as cell growth at 10 uM after 72 hrs by SRB assay relative to control; type: functional; details: read-out: Activity
[23] = Cytotoxicity against human RPMI8226 cells assessed as cell growth at 10 uM after 72 hrs by SRB assay relative to control; type: functional; details: RPMI-8226, 72 h, read-out: Activity
[24] = Cytotoxicity against human OVCAR5 cells assessed as cell growth at 10 uM after 72 hrs by SRB assay relative to control; type: functional; details: OVCAR-5, 72 h, read-out: Activity
[25] = Cytotoxicity against human SF539 cells assessed as cell growth at 10 uM after 72 hrs by SRB assay relative to control; type: functional; details: SF-539, 72 h, read-out: Activity
[26] = Cytotoxicity against human RXF393 cells assessed as cell growth at 10 uM after 72 hrs by SRB assay relative to control; type: functional; details: RXF 393, 72 h, read-out: Activity
[27] = Cytotoxicity against human HOP62 cells assessed as cell growth at 10 uM after 72 hrs by SRB assay relative to control; type: functional; details: HOP-62, 72 h, read-out: Activity
[28] = test system: M14; experiment: Cytotoxicity against human M14 cells assessed as cell growth at 10 uM after 72 hrs by SRB assay relative to control; type: functional; details: M14, 72 h, read-out: Activity
[29] = test system: NCI-H322M; experiment: Cytotoxicity against human NCI-H322M cells assessed as cell growth at 10 uM after 72 hrs by SRB assay relative to control; type: functional; details: read-out: Activity
[30] = Cytotoxicity against human HOP92 cells assessed as cell growth at 10 uM after 72 hrs by SRB assay relative to control; type: functional; details: HOP-92, 72 h, read-out: Activity
[31] = Cytotoxicity against human SF295 cells assessed as cell growth at 10 uM after 72 hrs by SRB assay relative to control; type: functional; details: SF-295, 72 h, read-out: Activity
[32] = Cytotoxicity against human SF268 cells assessed as cell growth at 10 uM after 72 hrs by SRB assay relative to control; type: functional; details: SF-268, 72 h, read-out: Activity
[33] = Cytotoxicity against human BT549 cells assessed as cell growth at 10 uM after 72 hrs by SRB assay relative to control; type: functional; details: BT-549, 72 h, read-out: Activity
[34] = test system: SK-MEL-2; experiment: Cytotoxicity against human SK-MEL-2 cells assessed as cell growth at 10 uM after 72 hrs by SRB assay relative to control; type: functional; details: SK-MEL-2, 72 h, read-out: Activity
[35] = Cytotoxicity against human Caki1 cells assessed as cell growth at 10 uM after 72 hrs by SRB assay relative to control; type: functional; details: CAKI-1, 72 h, read-out: Activity
[36] = Cytotoxicity against human PC3 cells assessed as cell growth at 10 uM after 72 hrs by SRB assay relative to control; type: functional; details: PC-3, 72 h, read-out: Activity
[37] = test system: SK-MEL-5; experiment: Cytotoxicity against human SK-MEL-5 cells assessed as cell growth at 10 uM after 72 hrs by SRB assay relative to control; type: functional; details: SK-MEL-5, 72 h, read-out: Activity

| SMILES | growth at 10 µM [1] | growth at 10 µM [2] | growth at 10 µM [3] | growth at 10 µM [4] | growth at 10 µM [5] | growth at 10 µM [6] | growth at 10 µM [7] | growth at 10 µM [8] | growth at 10 µM [9] | growth at 10 µM [10] | growth at 10 µM [11] | Activity [12] | growth at 10 µM [13] | growth at 10 µM [14] | growth at 10 µM [15] | growth at 10 µM [16] | growth at 10 µM [17] | growth at 10 µM [18] | growth at 10 µM [19] | growth at 10 µM [20] | other results |
| --- | --- | --- | --- | --- | --- | --- | --- | --- | --- | --- | --- | --- | --- | --- | --- | --- | --- | --- | --- | --- | --- |
| Cc1ccc2nc(Nc3ncnc4c3cnn4-c3ccccc3)sc2c1 | 102% | 112% | 107% | 97.5% | 87% | 112% | 110% | 103% | 91.7% | 106% | 103% | -1% | 98.4% | 80.3% | 102% | 108% | 103% | 87.9% | 97.2% | 66.4% | growth at 10 µM [21]: 106%; growth at 10 µM [22]: 44.8%; growth at 10 µM [23]: 102%; growth at 10 µM [24]: 96%; growth at 10 µM [25]: 101%; growth at 10 µM [26]: 99%; growth at 10 µM [27]: 110%; growth at 10 µM [28]: 107%; growth at 10 µM [29]: 45.7%; growth at 10 µM [30]: 97.5%; growth at 10 µM [31]: 99.8%; growth at 10 µM [32]: 114%; growth at 10 µM [33]: 108%; growth at 10 µM [34]: 109%; growth at 10 µM [35]: 103%; growth at 10 µM [36]: 98.3%; growth at 10 µM [37]: 92.1% |
| O=C(NC1CCCCC1)c1ccc(Nc2ncnc3c2cnn3-c2ccccc2)cc1 | 73.2% | 54% | 21.6% | 19% | 2.93% | 56.5% | 65.4% | 72.1% | 57.7% | 72% | 54.6% | 7% | 42.2% | 76.1% | 89.5% | 76.8% | 70.2% | 64.9% | 82.8% | 50.4% | growth at 10 µM [21]: 74.2%; growth at 10 µM [22]: 67.5%; growth at 10 µM [23]: 89.5%; growth at 10 µM [24]: 80.3%; growth at 10 µM [25]: 43.7%; growth at 10 µM [26]: 62.2%; growth at 10 µM [27]: -66.5%; growth at 10 µM [28]: 69.1%; growth at 10 µM [29]: 64%; growth at 10 µM [30]: 37.7%; growth at 10 µM [31]: 73.4%; growth at 10 µM [32]: 36.9%; growth at 10 µM [33]: 59.8%; growth at 10 µM [34]: 79.1%; growth at 10 µM [35]: 62.3%; growth at 10 µM [36]: 53.3%; growth at 10 µM [37]: 75.4% |
